This passage reports IC50 results from BindingDB's records for doi:10.1021/jm0509703 (Takeda Pharmaceutical, 2006).

The term IC50 denotes the point on the concentration scale where inhibition reaches its midpoint.

Test [1] is described as follows: Inhibition of membrane fusion between HIV1 JR-FL Env-expressing COS7 cells and MOLT4/CCR5.
A short description of test [2]: Inhibition of replication of R5 HIV1 Ba-L in MOLT4/CCR5 cells.

The structures appear in SMILES notation.

For the compound `CCCCOCCOc1ccc(-c2ccc3c(c2)C=C(C(=O)Nc2ccc([S+]([O-])Cc4cncn4CCC)cc2)CCCN3CCC)cc1` [(S)-(-)-8-{4-[2-(butoxy)ethoxy]phenyl}-1-propyl-N-(4-{[(1-propyl-1H-imidazol-5-yl)methyl]sulfinyl}phenyl)-1,2,3,4-tetrahydro-1-benzazocine-5-carboxamide], the IC50 came to 0.24 nM in test [1] and 1.4 nM in test [2]. Taken in the same sequence, the figures for `CCCCOCCOc1ccc(-c2ccc3c(c2)C=C(C(=O)Nc2ccc([S+]([O-])Cc4cncn4CCC)cc2)CCCN3Cc2cnn(C)c2)cc1` (stereo not given) were 0.21 nM and 2.3 nM. For the compound `CCCCOCCOc1ccc(-c2ccc3c(c2)C=C(C(=O)Nc2ccc([S+]([O-])Cc4nncn4CCC)cc2)CCCN3CCC)cc1` [(S)-(-)-8-{4-[2-(butoxy)ethoxy]phenyl}-1-propyl-N-(4-{[(4-propyl-4H-1,2,4-triazol-3-yl)methyl]sulfinyl}phenyl)-1,2,3,4-tetrahydro-1-benzazocine-5-carboxamide], in test [1], 0.95 nM corresponded to half-maximal inhibition (IC50).

As to `CCCCOCCOc1ccc(-c2ccc3c(c2)C=C(C(=O)Nc2ccc([S+]([O-])Cc4cncn4CCC)cc2)CCN3CC(C)C)cc1` (stereo not given) [7-(4-(2-butoxyethoxy)phenyl)-1-isobutyl-N-(4-((1-propyl-1H-imidazol-5-yl)methylsulfinyl)phenyl)-2,3-dihydro-1H-benzo[b]azepine-4-carboxamide], the values for the IC50 in test [1] and in test [2] were 1 nM and 5.3 nM, respectively. As for `CCCCOCCOc1ccc(-c2ccc3c(c2)C=C(C(=O)Nc2ccc([S+]([O-])Cc4cncn4CCC)cc2)CCCCN3CC(C)C)cc1` [(S)-(-)-9-{4-[2-(butoxy)ethoxy]phenyl}-1-isobutyl-N-(4-{[(1-propyl-1H-imidazol-5-yl)methyl]sulfinyl}phenyl)-2,3,4,5-tetrahydro-1H-1-benzazonine-6-carboxamide], the results for the IC50 in test [1] and in test [2] were 0.48 nM and 2.1 nM, respectively. Consider `CCCCOCCOc1ccc(-c2ccc3c(c2)C=C(C(=O)Nc2ccc([S+]([O-])Cc4nncn4CCC)cc2)CCCN3CC(C)C)cc1` (stereo not given), for which the IC50 in test [1] amounted to 0.19 nM.
